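Five compound concentrations were applied to cells in 96-well plates for 48 hours; endpoints were derived by simple linear interpolation of the resulting dose-response curve. At the GI50, growth is halved.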 Calls of active or inactive are those of the source. Cut-off read from the data, not from the text of the source: active = GI50 up to about 1.1 µM and inactive = higher.
Key:
Assay in all cases: DTP human tumour cell line panel, 48 h
MDA-N = tested on: MDA-N
A498 = tested on: A498
SW-620 = tested on: SW-620
M14 = tested on: M14
OVCAR-4 = tested on: OVCAR-4
SK-MEL-5 = tested on: SK-MEL-5
K562 = tested on: K562
NCI-H460 = tested on: NCI-H460
NCI/ADR-RES = tested on: NCI/ADR-RES
CCRF-CEM = tested on: CCRF-CEM
HT-29 = tested on: HT-29
OVCAR-5 = tested on: OVCAR-5
UO-31 = tested on: UO-31
COLO 205 = tested on: COLO 205
MDA-MB-231 = tested on: MDA-MB-231
TK-10 = tested on: TK-10
CAKI-1 = tested on: CAKI-1
SF-539 = tested on: SF-539

Measured: GI50

COc1ccc(NC(=O)CC(=O)NNC(Sc2ccccc2)c2cc(/N=N/c3ccc(Br)cc3)ccc2O)cc1 (stereo not drawn)
inactive: MDA-N > 10 µM | A498 > 10 µM | SW-620 > 10 µM | M14 > 10 µM | OVCAR-4 9.12 µM | SK-MEL-5 > 10 µM | K562 > 10 µM | NCI-H460 > 10 µM | NCI/ADR-RES > 10 µM | CCRF-CEM 3.56 µM | HT-29 > 10 µM | OVCAR-5 > 10 µM | UO-31 > 10 µM | COLO 205 > 10 µM | MDA-MB-231 > 10 µM | TK-10 > 10 µM | CAKI-1 > 10 µM | SF-539 > 10 µM

N=C(N)CCNC(=O)C1CCC(N)=N1 (stereo not drawn)
inactive: MDA-N 21.4 µM | A498 16 µM | SW-620 22.1 µM | M14 24.7 µM | OVCAR-4 9.48 µM | SK-MEL-5 16.4 µM | K562 13.2 µM | NCI-H460 7.55 µM | NCI/ADR-RES 26.2 µM | CCRF-CEM 12.5 µM | HT-29 5.2 µM | OVCAR-5 19.1 µM | UO-31 18.2 µM | COLO 205 5.61 µM | MDA-MB-231 14.7 µM | TK-10 22.7 µM | CAKI-1 10.6 µM | SF-539 11.6 µM

CC1CC(C)C2=NOS3=C2C1=NO3 (stereo not drawn)
inactive: MDA-N > 100 µM | A498 12.9 µM | SW-620 > 100 µM | M14 > 100 µM | OVCAR-4 > 100 µM | SK-MEL-5 30.8 µM | K562 53.8 µM | NCI-H460 > 100 µM | NCI/ADR-RES > 100 µM | CCRF-CEM > 100 µM | HT-29 > 100 µM | OVCAR-5 > 100 µM | UO-31 > 100 µM | COLO 205 72.6 µM | MDA-MB-231 > 100 µM | TK-10 > 100 µM | CAKI-1 > 100 µM | SF-539 > 100 µM

COc1cc(/C=C2\N=C(c3ccccc3)N(c3ccc(C(=O)c4ccccc4)cc3N3C(=O)/C(=C/c4ccc(O)c(OC)c4)N=C3c3ccccc3)C2=O)ccc1O
inactive: MDA-N 3.75 µM | A498 6.92 µM | SW-620 7.53 µM | M14 11.3 µM | OVCAR-4 14.9 µM | SK-MEL-5 7.76 µM | K562 5.18 µM | NCI-H460 4.66 µM | NCI/ADR-RES 6.76 µM | CCRF-CEM 5.45 µM | HT-29 20.3 µM | OVCAR-5 32.4 µM | UO-31 13 µM | COLO 205 17.9 µM | MDA-MB-231 12.9 µM | TK-10 18.5 µM | CAKI-1 18.7 µM | SF-539 5.15 µM

CCOC(=O)c1cccc(NC(=O)CCl)c1
inactive: MDA-N 3.92 µM | A498 15.2 µM | SW-620 3.32 µM | M14 8.61 µM | OVCAR-4 2.37 µM | SK-MEL-5 1.79 µM | K562 3.08 µM | NCI-H460 1.19 µM | NCI/ADR-RES 3.61 µM | CCRF-CEM 3.21 µM | HT-29 3.81 µM | OVCAR-5 7 µM | UO-31 4.04 µM | COLO 205 7.74 µM | MDA-MB-231 4.57 µM | TK-10 6.03 µM | CAKI-1 1.88 µM | SF-539 2.34 µM

O=C(O)c1cc2ccccc2oc1=O [COUMARIN-3-CARBOXYLIC ACID]
inactive: MDA-N > 100 µM | A498 > 100 µM | SW-620 > 100 µM | M14 > 100 µM | OVCAR-4 > 100 µM | SK-MEL-5 > 100 µM | K562 > 100 µM | NCI-H460 > 100 µM | NCI/ADR-RES > 100 µM | CCRF-CEM > 100 µM | HT-29 > 100 µM | OVCAR-5 > 100 µM | UO-31 > 100 µM | COLO 205 > 100 µM | MDA-MB-231 > 100 µM | TK-10 > 100 µM | CAKI-1 > 100 µM | SF-539 > 100 µM

C/C(=N\Nc1nc2ccccc2n1C)c1ccc2ccccc2n1
active: SW-620 0.35 µM | M14 1.02 µM | OVCAR-4 0.19 µM | CCRF-CEM 0.244 µM | HT-29 0.0861 µM | UO-31 1.04 µM | COLO 205 0.228 µM | MDA-MB-231 0.916 µM | CAKI-1 0.611 µM
inactive: MDA-N 5.04 µM | A498 3.69 µM | SK-MEL-5 1.24 µM | K562 2.07 µM | NCI-H460 2.56 µM | NCI/ADR-RES 1.63 µM | OVCAR-5 1.53 µM | TK-10 2.53 µM | SF-539 4.53 µM

O=C1C(=C(C(=O)c2ccccc2)C(=O)c2ccccc2)OC(c2ccccc2)=C1C(=O)c1ccccc1
active: CAKI-1 0.597 µM
inactive: MDA-N 6.47 µM | A498 15.6 µM | M14 7.41 µM | OVCAR-4 2.79 µM | SK-MEL-5 7.14 µM | K562 6.03 µM | NCI-H460 3.02 µM | NCI/ADR-RES 5.2 µM | CCRF-CEM 1.78 µM | HT-29 11.7 µM | OVCAR-5 16.9 µM | UO-31 6.79 µM | COLO 205 12.8 µM | MDA-MB-231 6.61 µM | TK-10 9.35 µM | SF-539 5.78 µM

Reference: ChEMBL document CHEMBL1201862, “PubChem BioAssay data set” (2004)
